Data on eight molecules can be found in ChEMBL document CHEMBL1141322, “Antiprotozoal polyacetylenes from the Tanzanian medicinal plant Cussonia zimmermannii” (J Nat Prod, 2007).

For assay [1], the system named is Plasmodium falciparum. Kind of assay: Antiparasitic activity against Plasmodium falciparum. Format: functional, organism-based.
Assay [2] can be described thus: Selectivity index, ratio of IC50 for rat L6 cells to IC50 for Leishmania donovani in mouse macrophages. In kind it is functional.
Assay [3] is described as follows: Selectivity index, ratio of IC50 for rat L6 cells to IC50 for Trypanosoma cruzi. Format: functional.
Assay [4] relates to Leishmania donovani. Briefly: Antileishmanial activity against Leishmania donovani axenic amastigotes. In kind it is functional, organism-based.
Assay [5] concerns L6. Briefly: Cytotoxicity against rat L6 cells by Alamar blue assay. In kind it is cell-based. Background: Alamar Blue is a resazurin reagent that responds to reducing activity.
In assay [6] the test system is Trypanosoma brucei rhodesiense. Briefly: Antiparasitic activity against Trypanosoma brucei rhodesiense by Alamar blue assay. In kind it is functional, organism-based.
Assay [7] deals with Trypanosoma cruzi. Briefly: Antiparasitic activity against Trypanosoma cruzi. In kind it is functional, organism-based.
Assay [8] relates to Leishmania donovani. Briefly: Antileishmanial activity against Leishmania donovani in mouse macrophages. In kind it is functional, organism-based.

Usually IC50 stands for the midpoint of a concentration-inhibition curve.

In the case of `C=CC(C#CC#CC(O)CCCCCCCCC)OC(C)=O` (centres undefined), the IC50 in assay [1] was 1400 nM; in assay [4], 130 nM; in assay [5], 12 µM; in assay [6], 460 nM; in assay [7] it was 650 nM; in assay [8], 320 nM. Besides, the “Ratio IC50” value in assay [2] was 37; in assay [3], 18.

As to `C=CC(C#CC#CC(O)CCCCCCCCCCOC(C)=O)OC(C)=O` (centres undefined), the half-inhibitory concentration (IC50) in assay [1] was determined as 2200 nM; in assay [4], 140 nM; in assay [5] it was 58 µM; in assay [6], 1100 nM; in assay [7], 400 nM; in assay [8], 2300 nM. For the same molecule, the “Ratio IC50” value is listed as 26 in assay [2] and 150 in assay [3].

Take `CCCCCCCCCC(O)C#CC#CC(CC)OC(C)=O` (centres undefined): the IC50 in assay [1] was 19000 nM; in assay [4], 7800 nM; in assay [5], 54 µM; in assay [6], 18000 nM; in assay [7] it was 26000 nM; in assay [8] it was more than 10000 nM. For the same molecule, the “Ratio IC50” value in assay [2] is less than 5.5; in assay [3] it was 2.1.

For `C[C@@H]1CC[C@H]2[C@@H](C)C(=O)O[C@@H]3O[C@@]4(C)CC[C@@H]1[C@]32OO4` [ARTEMISININ], the concentration for half-maximal inhibition (IC50) in assay [1] stood at 4.3 nM.

As to `O=C(Cn1ccnc1[N+](=O)[O-])NCc1ccccc1` [BENZNIDAZOLE], the 50% inhibitory concentration (IC50) in assay [7] came out at 2400 nM. This counts as single-digit micromolar.

With `Nc1nc(N)nc(Nc2ccc([As]3SCC(CO)S3)cc2)n1` (centres undefined) [MELARSOPROL], the IC50 in assay [6] worked out at 5.8 nM. That is a single-digit nanomolar value.

Consider `CCCCCCCCCCCCCCCCOP(=O)([O-])OCC[N+](C)(C)C` [MILTEFOSINE], for which it took 710 nM to reach half-maximal inhibition in assay [8] (IC50).

In turn, `COc1cc([C@@H]2c3cc4c(cc3[C@H](O)[C@H]3COC(=O)[C@H]23)OCO4)cc(OC)c1OC` [PODOFILOX] showed a half-inhibitory concentration (IC50) in assay [5] of […].
